System: Trypanosoma brucei brucei bloodstream form (BSF) parasites (cell line 90-13, a 427 strain)
Assay: Parasite viability assay (CellTiter Blue), bloodstream form African trypanosomes
Assay type: cell-based
Conditions: for % BSF Growth Inhibition @ 10 μM: 10 μM compound, 48 hours; for EC50: 48 hours at 37° C., averages of triplicates
Description: To determine the impact of diazacyclobutene derivatives on the growth of African trypanosomes (Trypanosoma brucei brucei) as a representative parasite, bloodstream form (BSF) parasites (cell line 90-13, a 427 strain at 1×10^5 cell/mL) were seeded into 384-well black plates in 40 μL HMI-9 supplemented with 10% fetal bovine serum and 10% Serum Plus (Sigma-Aldrich, St. Louis Mo.) in the presence of compound or equivalently diluted carrier. After 48 hours at 37° C. in 5% CO2, CellTiter Blue (8 μL, Promega, Madison Wis.) was added and the plates incubated an additional 3 hours. Fluorescence emission at A585 was then measured after excitation at A546 on a Synergy H1 Hybrid Reader (Biotek, Winooski Vt.). Averages of triplicates were calculated and fit to dose-response curves using Prism (Graphpad, San Diego Calif.) for the determination of EC50 values.

SMILES: CSc1c(-c2ccccc2)n2c(=O)n(-c3ccccc3)c(=O)n12 [Compound 1]
- % BSF Growth Inhibition @ 10 μM: 35.6 ± 1.9%
- EC50: > 10 µM

SMILES: CCSc1c(-c2ccccc2)n2c(=O)n(-c3ccccc3)c(=O)n12 [Compound 2]
- % BSF Growth Inhibition @ 10 μM: 23.4 ± 5.7%
- EC50: > 10 µM

SMILES: CCCSc1c(-c2ccccc2)n2c(=O)n(-c3ccccc3)c(=O)n12 [Compound 3]
- % BSF Growth Inhibition @ 10 μM: 96.6 ± 0.3%
- EC50: 5.83 ± 2.2 µM

SMILES: CCCCSc1c(-c2ccccc2)n2c(=O)n(-c3ccccc3)c(=O)n12 [Compound 4]
- % BSF Growth Inhibition @ 10 μM: 80.5 ± 2.1%
- EC50: > 5 µM

SMILES: CCCCCSc1c(-c2ccccc2)n2c(=O)n(-c3ccccc3)c(=O)n12 [Compound 5]
- % BSF Growth Inhibition @ 10 μM: 98.21 ± 0.17%
- EC50: 2.65 ± 0.16 µM

SMILES: CCCCCCCCSc1c(-c2ccccc2)n2c(=O)n(-c3ccccc3)c(=O)n12 [Compound 6]
- % BSF Growth Inhibition @ 10 μM: 94.71 ± 3.48%
- EC50: 2.04 ± 0.21 µM

SMILES: O=c1n(-c2ccccc2)c(=O)n2c(-c3ccccc3)c(SCc3ccccc3)n12 [Compound 7]
- % BSF Growth Inhibition @ 10 μM: 98.87 ± 2.68%
- EC50: 0.386 ± 0.034 µM

SMILES: O=c1n(-c2ccccc2)c(=O)n2c(-c3ccccc3)c(Sc3ccccc3)n12 [Compound 8]
- % BSF Growth Inhibition @ 10 μM: 11.5 ± 7%
- EC50: > 10 µM

SMILES: CSc1c(-c2ccc(C)cc2)n2c(=O)n(-c3ccccc3)c(=O)n12 [Compound 9]
- EC50: > 10 µM

SMILES: CCSc1c(-c2ccc(C)cc2)n2c(=O)n(-c3ccccc3)c(=O)n12 [Compound 10]
- % BSF Growth Inhibition @ 10 μM: 95.2 ± 3.5%
- EC50: 3.66 ± 1.7 µM

SMILES: COc1ccc(-c2c(SC)n3c(=O)n(-c4ccccc4)c(=O)n23)cc1 [Compound 11]
- % BSF Growth Inhibition @ 10 μM: 77.1 ± 3.5%
- EC50: > 5 µM

SMILES: CSc1c(-c2ccc(Cl)cc2)n2c(=O)n(-c3ccccc3)c(=O)n12 [Compound 12]
- % BSF Growth Inhibition @ 10 μM: 62.2 ± 2.7%
- EC50: > 5 µM

SMILES: CSc1c(-c2ccc(C(F)(F)F)cc2)n2c(=O)n(-c3ccccc3)c(=O)n12 [Compound 13]
- % BSF Growth Inhibition @ 10 μM: 89.6 ± 2.8%
- EC50: > 2.5 µM

SMILES: CCCCc1c(SC)n2c(=O)n(-c3ccccc3)c(=O)n12 [Compound 14]
- % BSF Growth Inhibition @ 10 μM: 95.6 ± 1.2%
- EC50: 0.35 ± 0.04 µM

SMILES: CCCCSc1c(CCCC)n2c(=O)n(-c3ccccc3)c(=O)n12 [Compound 15]
- % BSF Growth Inhibition @ 10 μM: 59.2 ± 6.6%

SMILES: C[Se]c1c(-c2ccccc2)n2c(=O)n(-c3ccccc3)c(=O)n12 [Compound 17]
- % BSF Growth Inhibition @ 10 μM: 46.1 ± 6.2%
- EC50: > 10 µM

SMILES: O=c1n(-c2ccccc2)c(=O)n2c(-c3ccccc3)c([Se]c3ccccc3)n12 [Compound 18]
- % BSF Growth Inhibition @ 10 μM: 84.24 ± 8.21%

SMILES: Cc1ccc(S(=O)(=O)N(C)c2c(-c3ccccc3)n3c(=O)n(-c4ccccc4)c(=O)n23)cc1 [Compound 21]
- % BSF Growth Inhibition @ 10 μM: 2.5 ± 4.3%
- EC50: > 10 µM

SMILES: Cc1ccc(S(=O)(=O)N(C)c2c(-c3ccc(C(F)(F)F)cc3)n3c(=O)n(-c4ccccc4)c(=O)n23)cc1 [Compound 22]
- % BSF Growth Inhibition @ 10 μM: 0%
- EC50: > 10 µM

SMILES: CSc1c(-c2ccccc2)n2c(=O)n(-c3cccc(Cl)c3)c(=O)n12 [Compound 23]
- EC50: 7.08 ± 1.9 µM

SMILES: COc1cccc(-n2c(=O)n3c(SC)c(-c4ccccc4)n3c2=O)c1 [Compound 25]
- EC50: > 10 µM

— US11510906B1, “Diazacyclobutene derivatives as anti-parasitic drug substances” (Clemson University, priority 2019, dated 2022)
